{"source": "patent US11241385B2", "about": "“Topical composition and method for treating and preventing atopic dermatitis and infections related to bacteria biofilm” (Johnson & Johnson Consumer Inc., priority 2017, dated 2022)", "key": {"[1]": {"test_system": "Staphylococcus aureus biofilms", "experiment": "Biofilm growth inhibition, wells method (inhibition halos)", "format": "cell-based", "details": "S. Aureus", "method": "(§1) 1.3.3 Biofilm Growth Inhibition, Wells Method.\n(§2) Protocol disclosed by Hui Zhang was adapted as follow: • a—100 μL of a bacterial strains culture (DO580=0.5) is spread on a LB culture plate. • b—5 mm diameter wells are created with a punch in the gel surface of the culture plate. Each well is attributed to one formulation, the same formulation throughout the test. • c—50 μL of tested formulation is injected per well. • d—24 hours incubation at 37° C. • e—Wells are emptied from the formulations. • f—Growth inhibition halos are measured. • g—Repeat from step c to obtain data over several days (8 days in the present case).\n(§3) Tests were conducted on biofilms according to the methodology disclosed on paragraph 1.3.3 (Wells). A 10% solution of Triton X-100 (Aldrich) was submitted to the same test, results after 2 days were used as references.\n(§4) Inhibition halos were measured and compared to the inhibition halo obtained for the Triton X-100 solution after 2 days. Inhibition halo differences are expressed in %. Over 100% the inhibition is higher than what is observed for Triton at 2 days; under 100% the inhibition is lower than what is observed for Triton at 2 days. Inhibition was measured at 2 days and 8 days."}, "[2]": {"test_system": "Staphylococcus Epidermidis biofilms", "experiment": "Biofilm growth inhibition, wells method (inhibition halos)", "format": "cell-based", "details": "S. Epidermidis", "method": "as §1, §2, §3, §4"}, "[3]": {"test_system": "Staphylococcus aureus biofilms", "experiment": "Biofilm growth, crystal violet method", "format": "cell-based, Staphylococcus Aureus MFP03", "details": "S. aureus, absorbance 550 nm", "method": "1.3.2 Biofilm Growth, Crystal Violet Method\nExperiments on biofilm growth were performed according to the protocol disclosed in G. A. O'Toole, Microtiter Dish Biofilm Formation Assay, J Vis Exp. 2011; (47): 2437. The protocol disclosed by G. A. O'Toole teaches the assay on Pseudomonas aeruginosa, it was adapted to Staphylococcus Aureus MFP03 and Staphylococcus Epidermis MFP04.\nTwo conditions were studied: • The effect of the emulsions on biofilms in formation: the emulsions are added to the medium from the beginning of the bacterial growth. • The effect of emulsions on established biofilms: the emulsions are added to the bacteria after a first 24-hour incubation that allowed the development of the biofilm.\nThe protocol taught by G. A. O'Toole is as follows:\n1. Grow a culture of the wild-type Pseudomonas aeruginosa or mutant strain overnight in a rich medium (i.e. LB)\n2. […] For quantitative assays, we typically use 4-8 replicate wells for each treatment. […] Quantifying the Biofilm 1. […] Quantify absorbance in a plate reader at 550 nm using 30% acetic acid in water as the blank. For the conditions of biofilms in formation: emulsions at 10% (w/w) are added to the medium, and after 24 h of incubation, the optical density is measured. […] Optical density is then measured. Results are expressed in percentage of absorbance relative to the control sample, which is the biofilm itself. […]"}}}
{"substance": "Triton X-100", "values": [{"measurement": "Growth inhibition % (halo), relative to Triton X-100 at 2 days", "setting": "[1]; 2 days", "value": 100, "unit": "%"}, {"measurement": "Growth inhibition % (halo), relative to Triton X-100 at 2 days", "setting": "[1]; 8 days", "value": 198.5, "unit": "%"}, {"measurement": "Growth inhibition % (halo), relative to Triton X-100 at 2 days", "setting": "[2]; 2 days", "value": 100, "unit": "%"}, {"measurement": "Growth inhibition % (halo), relative to Triton X-100 at 2 days", "setting": "[2]; 8 days", "value": 231, "unit": "%"}, {"measurement": "Absorbance percentage relative to the control (the biofilm itself), established biofilm", "setting": "[3]; after 24 h biofilm growth medium replaced for 4 hours by emulsion", "value": 177, "unit": "%"}, {"measurement": "Absorbance percentage relative to the control (the biofilm itself), biofilm in formation", "setting": "[3]; emulsion at 10% (w/w) in medium from start, 24 h incubation", "value": 27, "unit": "%"}]}
